Experiments:
[1] = system: influenza HA vaccine (A/Bangkok/10/83 strain, H1N1); test: Enhancing effect on influenza HA vaccine (adjuvant activity), ELISA; assay type: in vivo; conditions: CDF1 mouse, compound (100 μg/ml) mixed with influenza HA vaccine (100 CCA/ml)
Method: (3) Enhancing effect on influenza HA vaccine (adjuvant activity)
A compound of the invention was dissolved or suspended in physiological saline (100 μg/ml). Separately, influenza HA vaccine (A/Bangkok/10/83 strain, H1N1) was dissolved in physiological saline (100 CCA/ml). These two solutions were mixed in an equivalent weight to make the test solution. Control is a solution excluded the compound of the invention from the test solution.
The test solution was administered into CDF1 mouse in a similar way to that of the test of enhancing action for hepatitis vaccine as mentioned above, to obtain primary and secondary response sera.

[2] = Stimulation effect on antibody producing cells (plaque numbers, Cunningham technique); assay type: in vivo, ICR mouse; conditions: for Plaque No.: ICR mouse, SRBC i.v. and compound 500 μg/ml, 0.2 ml i.v., splenic cells after 4 days; for Stimulation index: plaque number relative to control (saline) = 1
Method: (5) Stimulation effect on anti-body precluding cells
A solution of sheep […] (SRBC) in phosphate buffered physiological saline (5×10^7 cells/ml), 0.2 ml was injected into tail intravenous vein of ICR mouse (7 mice per group). At the same time, a solution of a compound of the invention in physiological saline (500 μg/ml), 0.2 ml was similarly injected. After 4 days, lien was picked up from the treated mouse to obtain splenic cells. Plaque numbers were measured by Cunningham technique.

E. coli (JC-2) = test: Phylactic effect, E. coli infection; assay type: in vivo; conditions: ICR mouse; compound 500 μg/ml, 0.2 ml i.p. one day before infection i.p. 1×10^7 /mouse; after 7 days of infection
Method: (§1) A solution of a compound of the invention in physiological saline (500 μg/ml), 0.2 ml was intraperitoneally injected into ICR mouse (20 mice per group). After a day, E. coli (JC-2) and Psud. aeruginosa (NCTC 10490) were incubated through intraperitoneal route so as to be at concentration of 1×10^7 /mouse. Survival rate after 7 days of infection was measured.

[3] = system: Psud. aeruginosa (NCTC 10490); test: Phylactic effect, Psud. aeruginosa infection; assay type: in vivo; conditions: ICR mouse; compound 500 μg/ml, 0.2 ml i.p. one day before infection i.p. 1×10^7 /mouse; after 7 days of infection
Method: as §1

BCG killed vaccine = test: Enhancing action on BCG vaccine (adjuvant activity), 24 hours foot-pad test; assay type: in vivo; conditions: ICR mouse; s.c. 0.2 ml mixture of BCG killed vaccine (100 μg/ml) and compound in Freund's incomplete adjuvant (1000 μg/ml); tuberculin 10 μg after 14 days; measured after 24 hours
Method: (1) Enhancing action on BCG vaccine (adjuvant activity)
0.2 ml of an equivalent weight mixture of a solution of BCG killed vaccine in physiological saline (100 μg/ml) and a solution of a compound of the invention in Freund's incomplete adjuvant (1000 μg/ml) was subcutaneously injected to the back of ICR mouse (one group consisting of 7 mice). After 14 days, 10 μg of tuberculin was intradermally injected into the hind foot-pad. Swelling of the foot-pad was measured after 24 hours (24 hours foot-pad test).
The control is the above mentioned mixture excluded a compound of the invention.

[4] = system: leukemia cells of L-1210 mouse; test: Activation for macrophages: cytostatic rate of intraperitoneal macrophages on leukemia cells; assay type: in vivo; conditions: CDF1 mouse i.p. 500 μg/ml, 0.2 ml; macrophages collected after 4 days; macrophages:L-1210 cells 20:1; 72 hours
Method: (4) Activation for macrophages
A test solution of a compound of the invention in physicological saline (500 μg/ml, 0.2 ml) was intraperioneally injected into CDF1 mouse (one group consisting of mice). Intraperioneal macrophages which were collected after 4 days and leukemia cells of L-1210 mouse were mixed at the cell ratio of 20 and 1. Each 200 μl of the mixture was put on a microplate having 96 holes. After 72 hours, numbers of cells in each holes were counted, and cytostatic rate of the mixture was measured.

[5] = system: B type hepatitis vaccine (HBs); test: Enhancing effect on hepatitis vaccine (adjuvant activity), IgG antibody by ELISA; assay type: in vivo; conditions: CDF1 mouse; for Anti HBs-ELISA unit, Primary response serum: i.p. 0.2 ml compound (100 μg/ml) mixed with HBs vaccine, serum at 3 weeks; for Anti HBs-ELISA unit, Secondary response serum: second i.p. injection of 0.2 ml test solution, serum at 2 weeks
Method: (2) Enhancing effect on hepatitis vaccine (adjuvant activity)
A compound of the invention was dissolved or suspended in physiological saline (100 μg/ml), and mixed with a solution of B type hepatitis vaccine (HBs) in physiological saline (100 μg/m) at an equivalent weight ratio to obtain the test solution. A solution excluded the compound of the invention from the test solution was used as control.
The test solution (0.2 ml) was intraperitoneally injected into CDF1 mouse (one group consisting of 10 mice). At 3 weeks after the administration, a blood was taken from the intravenous vein in eyeground of each the mice and centrifuged to obtain serum (primary response serum). Further, 0.2 ml of the test solution was again intraperitoneally injected into each mice, and at 2 weeks stage, serum was separated in the similar way (secondary response serum).
Value for IgG antibody against B type hepatitis virus of the resulting serum was measured by ELISA method.

Meth A fibrosarcomas = test: Antitumour effect, Meth A fibrosarcoma; assay type: in vivo; conditions: BALB/C mouse; s.c. 0.2 ml mixture of Meth A cells (1×10^6 cells/ml) and compound (1,000 μg/ml); after 35 days
Method: Meth A fibrosarcomas were suspended in phosphate buffered physiological saline (1×10^6 cells/ml). Separately, a solution of a compound of the invention in physiological saline was prepared (1,000 μg/ml). An equivalent weight mixture of these two solution (0.2 ml) was subcutaneously injected into BALB/C mouse (20 mice per group). Survival rate after 35 days was measured.

| Compound | Anti-influenza HA virus ELISA unit, Primary response serum [1] | Anti-influenza HA virus ELISA unit, Secondary response serum [1] | Plaque No. [2] | Stimulation index [2] | Survival rate, E. coli (E. coli (JC-2)) | Survival rate, Psud. aeruginosa [3] | Swelling of Foot-pad (BCG killed vaccine) | Cytostatic rate [4] | Anti HBs-ELISA unit, Primary response serum [5] | Anti HBs-ELISA unit, Secondary response serum [5] | Survival rate (Meth A fibrosarcomas) |
| --- | --- | --- | --- | --- | --- | --- | --- | --- | --- | --- | --- |
| CCCCCCCCCCCCCC(=O)O[C@H](CCCCCCCCCCC)CC(=O)OC[C@H]1OC[C@H](NC(C)=O)[C@@H](O[C@H](C)C(=O)N[C@@H](C)C(=O)N[C@H](CCC(=O)OC)C(N)=O)[C@@H]1O [Example 5, N-[[2-O-{2-Acetamido-1,5-anhydro-2,3-dideoxy-6-O-[(3R)-3-tetradodecanoyloxytetradecanoyl]-D-glucitol-3-yl}-D-lactoyl]]-L-alanyl-D-isoglutamine methyl ester] | 1,800 ELISA unit | 28,000 ELISA unit | 5.83 ± 3.2 × 10^3 | 1.2 | 70% | 55% | 69.3 ± 18.8 × 0.01 mm | 58.6 ± 2.9% | 3,600 ELISA unit | 120,000 ELISA unit | 35% |
| CCCCCCCCCCCCCC(=O)O[C@H](CCCCCCCCCCC)CC(=O)OC[C@H]1O[C@@H](S)[C@H](NC(C)=O)[C@@H](O[C@H](C)C(=O)N[C@@H](C)C(=O)N[C@H](CCC(=O)OC)C(N)=O)[C@@H]1O [Example 8, N-[[2-O-{2-Acetamido-2,3-dideoxy-6-O-[(3R)-3-tetradecanoyloxytetradecanoyl]-1-thio-β-D-glucopyranos-3-yl}-D-lactoyl]]-L-alanyl-D-isoglutamine methyl ester] | 2,100 ELISA unit | 22,000 ELISA unit | 8.63 ± 7.9 × 10^3 | 1.8 | 35% | 20% | 51.8 ± 11.0 × 0.01 mm | 31.6 ± 1.6% | 2,200 ELISA unit | 105,000 ELISA unit | 5% |
| CCCCCCCCCCCCCCCC(=O)O[C@H](CCCCCCCCCCC)CC(=O)OC[C@H]1O[C@@H](S)[C@H](NC(C)=O)[C@@H](O[C@H](C)C(=O)N[C@@H](C)C(=O)N[C@H](CCC(=O)OC)C(N)=O)[C@@H]1O [Example 9, N-[[2-O-{2-Acetamido-2,3-dideoxy-6-O-[(3R)-3-hexadodecanoyloxytetradecanoyl]-1-thio-β-D-glucopyranos-3-yl}-D-lactoyl]]-L-alanyl-D-isoglutamine methyl ester] | 1,900 ELISA unit | 25,000 ELISA unit | 11.00 ± 10.1 × 10^3 | 2.3 | 40% | 15% | 49.1 ± 12.0 × 0.01 mm | 38.2 ± 2.2% | 3,400 ELISA unit | 150,000 ELISA unit | 5% |
| CCCCCCCCCCCC(=O)O[C@H](CCCCCCCCCCC)CC(=O)OC[C@H]1OC[C@H](NC(C)=O)[C@@H](O[C@H](C)C(=O)N[C@@H](C)C(=O)N[C@H](CCC(=O)OC)C(N)=O)[C@@H]1O [Example 4] | 2,300 ELISA unit | 32,000 ELISA unit | 6.67 ± 3.6 × 10^3 | 1.4 | 65% | 50% | 78.6 ± 19.1 × 0.01 mm | 55.2 ± 2.8% | 5,200 ELISA unit | 175,000 ELISA unit | 35% |
| CCCCCCCCCCCC(=O)O[C@H](CCCCCCCCCCC)CC(=O)OC[C@H]1O[C@@H](S)[C@H](NC(C)=O)[C@@H](O[C@H](C)C(=O)N[C@@H](C)C(=O)N[C@H](CCC(=O)OC)C(N)=O)[C@@H]1O [Example 7, N-[[2-O-{2-Acetamido-2,3-dideoxy-6-O-[(3R)-3-dodecanoyloxytetradecanoyl]-1-thio-β-D-glucopyranos-3-yl}-D-lactoyl]]-L-alanyl-D-isoglutamine methyl ester] | 2,000 ELISA unit | 26,000 ELISA unit | 10.88 ± 9.8 × 10^3 | 2.3 | 30% | 20% | 50.6 ± 13.6 × 0.01 mm | 22.8 ± 2.6% | 2,500 ELISA unit | 110,000 ELISA unit | 10% |
| CCCCCCCCCCCCCCCC(=O)O[C@H](CCCCCCCCCCC)CC(=O)OC[C@H]1OC[C@H](NC(C)=O)[C@@H](O[C@H](C)C(=O)N[C@@H](C)C(=O)N[C@H](CCC(=O)OC)C(N)=O)[C@@H]1O [Example 6] | 2,500 ELISA unit | 30,000 ELISA unit | 6.81 ± 4.8 × 10^3 | 1.4 | 60% | 50% | 86.4 ± 22.1 × 0.01 mm | 42.6 ± 3.2% | 6,200 ELISA unit | 220,000 ELISA unit | 30% |
| CCCCCCCCCCCCCC(=O)O[C@H](CCCCCCCCCCC)CC(=O)OC[C@H]1OC(O)[C@H](NC(C)=O)[C@@H](O[C@H](C)C(=O)N[C@@H](C)C(=O)N[C@H](CCC(=O)OC)C(N)=O)[C@@H]1O (stereo partly drawn) [Example 2, N-[[2-O-{2-Acetamido-2,3-dideoxy-6-O-[(3R)-3-tetradecanoyloxytetradecanoyl]-D-glucopyranos-3-yl}-D-lactoyl]]-L-alanyl-D-isoglutamine methyl ester] | 3,100 ELISA unit | 33,000 ELISA unit | 8.23 ± 7.2 × 10^3 | 1.7 | 55% | 45% | 57.4 ± 16.3 × 0.01 mm | 45.2 ± 1.1% | 6,000 ELISA unit | 195,000 ELISA unit | 30% |

Reference: US4895835A, “Muramyl peptide derivatives and use thereof” (priority 1987, dated 1990)
